Results from patent US7273715B2 (priority 2003, dated 2007).
Read-outs that look alike come from different tables or passages of the source. Peptide text beside a SMILES is read from it. * marks the point of attachment. Cbz = O=C(OCc1ccccc1)*

Assays:
[1] = target: T1, GS-9005 hydrolase A (Homo sapiens, UniProt P42785); assay type: biochemical
T1 construct: Varying amounts of purified GS-9005 hydrolase A and control enzymes; from tissue; host or cells: human peripheral blood mononuclear cells (PBMC), purified by Q15 flow-through, SP-Sepharose, Butyl Sepharose HIC and lentil lectin chromatography
T1 sequence (P42785 46-496): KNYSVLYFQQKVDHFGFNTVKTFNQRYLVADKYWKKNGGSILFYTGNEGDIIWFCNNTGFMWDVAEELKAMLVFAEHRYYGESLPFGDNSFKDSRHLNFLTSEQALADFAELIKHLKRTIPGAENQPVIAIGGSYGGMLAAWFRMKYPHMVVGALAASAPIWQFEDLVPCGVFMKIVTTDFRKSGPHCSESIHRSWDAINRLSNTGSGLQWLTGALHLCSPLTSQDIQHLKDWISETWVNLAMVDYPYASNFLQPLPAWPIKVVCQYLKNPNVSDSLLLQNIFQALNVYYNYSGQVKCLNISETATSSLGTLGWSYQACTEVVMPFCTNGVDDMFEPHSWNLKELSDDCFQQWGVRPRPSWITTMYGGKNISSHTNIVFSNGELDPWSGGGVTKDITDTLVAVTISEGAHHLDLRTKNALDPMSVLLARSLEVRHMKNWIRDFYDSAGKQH

[2] = target: Human Prolylcarboxypeptidase (Homo sapiens, UniProt P42785); conditions: read-out: Inhibition profile, ProlylcarboxyPeptidase; cited from earlier work
[3] = target: T1, GS-9005 hydrolase A; assay type: biochemical; remark: listed apart in the source
[4] = pH 6.5, read-out: IC50 (inhibition profile, 9005 Hydrolase A)
[5] = read-out: concentration at which GS-9005 hydrolase A is inhibited by 50%

Row | Structure (SMILES) | specific activity of GS-9005 hydrolase A against the compound (comparison in words) [3] | other results
1 | O=C[C@@H]1CCCN1C(=O)[C@@H]1CCCN1C(=O)OCc1ccccc1 [Cbz-pro-pro-COH, Carboxybenzoyl-Pro-Pro-COH] (Cbz-Pro-Pro-aldehyde) |  | inhibition of GS-9005 hydrolase A (in words) [1]: inhibited; IC50 [1, 4]: 1 µM; IC50 [1, 5]: ~1 µM; IC50 [2]: 1 µM
2 | CCOC(=O)[C@H](C)OP(=O)(COc1ccc(C[C@H](NC(=O)O[C@H]2CO[C@H]3OCCC32)[C@H](O)CN(CC(C)C)S(=O)(=O)c2ccc(OC)cc2)cc1)Oc1ccccc1 (stereo partly shown) [Compound A] | greater than its specific activity against Compound L | 
3 | CCOC(=O)[C@H](C)NP(=O)(COc1ccc(C[C@@H]2[C@H](O)[C@@H](O)[C@@H](Cc3ccc(OC)cc3)N(Cc3ccc4[nH]ncc4c3)C(=O)N2Cc2ccc3[nH]ncc3c2)cc1)N[C@@H](C)C(=O)OCC [Compound BB] | approximately equivalent specific activity | 
4 | CCOC(=O)[C@H](C)NP(=O)(COc1ccc(C[C@@H]2[C@H](O)[C@@H](O)[C@@H](Cc3ccc(OC)cc3)N(Cc3ccc4[nH]ncc4c3)C(=O)N2Cc2ccc3[nH]ncc3c2)cc1)Oc1ccccc1 (stereo partly shown) [Compound CC] | approximately equivalent specific activity | 
5 | CCOC(=O)[C@H](C)OP(=O)(COc1ccc(C[C@@H]2[C@H](O)[C@@H](O)[C@@H](Cc3ccc(OC)cc3)N(Cc3ccc4[nH]ncc4c3)C(=O)N2Cc2ccc3[nH]ncc3c2)cc1)Oc1c(C)cccc1C (stereo partly shown) [Compound EE] | greater than its specific activity against Compound W | 
6 | CCOC(=O)[C@H](C)OP(=O)(CCNCc1ccc(Cn2c(COC(N)=O)nc(C(C)C)c2Sc2cc(Cl)cc(Cl)c2)cc1)Oc1ccccc1 (stereo partly shown) [Compound GG] | greater than its specific activity against Compound DD | 
7 | CCOC(=O)COP(=O)(COc1ccc(Cn2c(COC(N)=O)nc(C(C)C)c2Sc2cc(Cl)cc(Cl)c2)cc1)Oc1ccccc1 (stereo not shown) [Compound HH] | greater than its specific activity against Compound I | 
8 | CCSc1ccc(CN2CCCN(Cc3cccnc3)CC2)cc1 [Compound JJ] | greater than its specific activity against Compound AA | 
9 | CCOC(=O)[C@H](C)NP(=O)(COc1ccc(Cn2c(COC(N)=O)nc(C(C)C)c2Sc2cc(Cl)cc(Cl)c2)cc1)Oc1ccccc1 (stereo partly shown) [Compound KK] | greater than its specific activity against Compound FF | 
10 | C=C(OC(C)C)[C@H](C)N[P@](=O)(CO[C@H](C)Cn1cnc2c(C)ncnc21)Oc1ccccc1 [Compound K] | approximately equivalent specific activity | 
11 | COC(=O)[C@H](C)NP(=O)(COc1ccc(Cn2c(COC(N)=O)nc(C(C)C)c2Sc2cc(Cl)cc(Cl)c2)cc1)Oc1ccccc1 (stereo partly shown) [Compound LL] | approximately equivalent specific activity | 
12 | COC(=O)[C@H](C)N[P@](=O)(CO[C@H](C)Cn1cnc2c(N)ncnc21)Oc1ccccc1 [Compound U] | approximately equivalent specific activity | 
13 | C=C(OC(C)C)C(C)OP(=O)(CCNCc1ccc(C[C@H](NC(=O)O[C@H]2CO[C@H]3OCC[C@H]32)[C@H](O)CN(CC(C)C)S(=O)(=O)c2ccc(OC)cc2)cc1)Oc1ccccc1 (stereo partly shown) [Compound X] | greater than its specific activity against Compound V | 
14 | CCOC(=O)[C@H](C)OP(=O)(CCN1CCN(C(=O)c2c3c(c(O)c4ncccc24)C(=O)N(Cc2ccc(F)cc2)C3)CC1)Oc1ccccc1 (stereo partly shown) [Compound Y] | greater than its specific activity against Compound B | 
15 | C=C(OCC)[C@H](C)OP(=O)(CCNC(=O)c1c2c(c(O)c3ncccc13)C(=O)N(Cc1ccc(F)cc1)C2)Oc1ccccc1 (stereo partly shown) [Compound Z] | approximately equivalent specific activity | 
16 | O=c1oc(Cl)c(Cl)c2ccccc12 [DCI, 3,4 dichloroisocoumarin] |  | inhibition of GS-9005 hydrolase A (in words) [1]: inhibited
17 | O=S(=O)(F)Cc1ccccc1 [PMSF] |  | IC50 [1, 4]: 200 µM; IC50 [1, 5]: ~200 µM; IC50 [2]: 100 to 300 µM
